Measurements published in USRE38792E1, “Modified bacterial cellulose” (Ajinomoto Co., Ltd., priority 1996, dated 2005).

Key:
[1] = test system: Acetobacter pasteurianus FERM BP-4176; assay: Shape/length of cellulose-producing bacterium by optical microscope; type: cell-based
Protocol: (§1) Seed culture was carried out by placing 20 ml of the above culture medium in a 100 ml flask with baffle, inoculating Acetobacter pasteurianus FERM BP-4176, and then culturing at 25° C. for 3 days with stirring at 200 rpm. The culture medium was crushed by a blender, and added to a main culture medium having the above composition in a concentration of 2% seed culture.
(§2) The main culture was carried out by static culture at 25° C. During the culture, culture solution and bacterial cellulose were withdrawn, and the morphology of bacteria was observed by an optical microscope, an electron microscope and an atomic force microscope.
(§3) Six main culture media were used, and nalidixic acid (NA) was added thereto in a concentration of 0.01 mM, 0.05 mM, 0.1 mM, 0.2 mM or 1.0 mM except one medium to which NA was not added.
Acetobacter pasteurianus FERM BP-4176 was cultured in static culture, and the culture solution and bacterial cellulose were withdrawn, and the shape of bacteria was observed by the optical microscope, the electron microscope and the atomic force microscope, similar to Example 1, except that chloramphenicol was used instead of nalidixic acid.
That is, six main culture media having the aforementioned composition were used, and chloramphenicol (CP) was added thereto in a concentration of 0.1 mM, 0.2 mM, 0.3 mM, 0.5 mM or 1.0 mM except one medium to which CP was not added.
Acetobacter pasteurianus FERM BP-4176 was cultured in static culture, and the culture solution and bacterial cellulose were withdrawn, and the form of bacteria was observed by the optical microscope, the electron microscope and the atomic force microscope, similar to Example 1, except that chloramphenicol was used instead of nalidixic acid.
That is, four main culture media having the aforementioned composition were used, and dithiothreitol (DTT) was added thereto in a concentration of 0.5 mM, 1.0 mM or 2.0 mM except one medium to which DTT was not added.
Acetobacter pasteurianus FERM BP-4176 was cultured in agitation culture at 180 rpm instead of static culture, and the culture solution and bacterial cellulose were withdrawn, and the shape of bacteria was observed by the optical microscope, the electro microscope and the atomic force microscope, similar to Example 1.
That is, […] main culture media having the aforementioned composition were used, and nalidixic acid (NA) was added thereto in a concentration of 0.10 mM, or 0.20 mM, except one medium to which NA was not added.

[2] = test system: Acetobacter pasteurianus FERM BP-4176; assay: Production of bacterial cellulose in static culture; type: cell-based; settings: NA 0.01 to 1.0 mM
Protocol: The culture medium used was composed of 50.0 g/l sucrose, 5.0 g/l “Total Amino Acid” (Ajinomoto Co., Inc.), 0.2 g/l phytic acid, 2.4 g/l magnesium sulfate and 1.0 g/l ammonium sulfate (pH 5.0).
as §1, §2, §3

## O[C@H](CS)[C@H](O)CS (racemic) [DTT, dithiothreitol]
[1]; 1.0 mM DTT, static culture 2 days
  length of the bacterium as fraction of the bacteria cultured in no DTT medium: ⅓ to ½
[1]; static culture
  change of length of the cellulose-producing bacterium with increasing concentration: decreased

## O=C(N[C@H](CO)[C@H](O)c1ccc([N+](=O)[O-])cc1)C(Cl)Cl [CP, chloramphenicol]
[1]; CP 0.1 to 1.0 mM, static culture
  length of the cellulose-producing bacterium, up to, relative to bacteria cultured in no CP medium: 8 to 12 times
[1]; static culture
  change of length of the cellulose-producing bacterium with increasing concentration: increased

## CCn1cc(C(=O)O)c(=O)c2ccc(C)nc21 [NA, nalidixic acid]
[1]; 0.1 mM NA, static culture 2 days
  lengthening of bacterium compared with no addition of NA: 2 to 4 times
[1]; agitation culture 180 rpm, 0.10 or 0.20 mM NA
  change of length of the cellulose-producing bacteria: increased
[2]
  production of bacterial cellulose with increasing NA concentration: inhibited
